Reference: patent US20010055755A1, “Dendritic marker-expressing macrophage cultures and methods for reactivating latent HCMV” (priority 1997, published 2001)

Test system: HCMV
Experiment: HCMV infection of monocyte-derived dendritic cells with cytokine treatment
Type: cell-based
Conditions: up to day 12 post stimulation, compared with unstimulated cells
Method: PBMC were isolated as described above and plated onto primaria plates for monocyte adherence. After two hours of culture, non-adherent cells were removed by three washes in serum free medium and adherent cells were stimulated with I1-4 (1000 U/ml) and GM-CSF (50 ng/ml) as previously described (Sallusto et al., J. Exp. Med. 179:1109-1118 (1994)). Immature dendritic cells cultured in RPMI medium containing 1% sodium pyruvate were developed during the first 12 days of culture. Cell samples were collected at 12 days for flow cytometric analysis to determine the expression of dendritic and macrophage markers. Small, round dendritic cells were stimulated with […] (10 ng/ml) and IFN-γ (500 U/ml) for two days. Thereafter, the mature, adherent dendritic cells were challenged with HCMV at a MOI of 10 or mock infected as described herein.
PBMC were cultured under standard conditions with IL-4 and GM-CSF to yield monocyte-derived dendritic cells (see, e.g., Annals Surg. 226:1-5 (1997)). The dendritic cells were infected in vitro under the conditions described herein with HCMV. […] Viral growth is measured as described with antibodies against viral proteins IE and gB. Viral growth is measured at days 1, 3, 8, 12, and 20 post infection.

Substance: IFN-γ: cytokine used at 500 U/ml to stimulate dendritic cells
- viral expression in MDDC after additional stimulation: did not increase viral expression
